The record followed here is publication PMC5843355, “Evaluation of the Trypanosoma brucei 6-oxopurine salvage pathway as a potential target for drug discovery” (PLoS Neglected Tropical Diseases, 2018).

In general, Ki refers to the equilibrium dissociation constant of an inhibitor or competing ligand from its target. One may read the kcat as the number of substrate molecules converted per active site and unit of time at saturation.

The target of assay [1] is T1, HGXPRT (Trypanosoma brucei brucei, UniProt Q38CA1). Description: Inhibition studies, Ki for recombinant HGXPRT (spectrophotometric assay). In kind it is biochemical. Conditions: 0.1 M Tris pH 8.4, 0.11 M MgCl2, 25°C, parent ANP. How it is done: (§1) The concentration of enzyme in the assay (varied from 75–200 μg/ml for the two enzymes) and the concentration of PRib-PP was kept at 1 mM. The reaction was carried out using a 1.0 cm path length with a UV Visible spectrometer 1601 (Shimadzu) in the reaction buffer (0.1 M Tris, pH 8.4; 0.11 M MgCl2; at 25°C).
(§2) The concentrations of inhibitors in the assay ranged from 1 nM to 100 μM, depending on the steady-state kinetics of the respective enzyme at that concentration of inhibitor. The reaction was preceded by 1 minute incubation of the respective enzyme with the given inhibitor. The Ki values were calculated using non-linear regression in GraphPad Prism5.

Assay [2] deals with T2, HGPRT-I (Trypanosoma brucei brucei, UniProt Q07010).
T2 construct: 6x His-tag (N); AcTEV cleavage site (N); made in house; host or cells: E. coli One Shot BL21(DE3)
Put plainly: Inhibition studies, Ki for recombinant HGPRT-I (spectrophotometric assay). In kind it is biochemical. The following applies: 0.1 M Tris pH 8.4, 0.11 M MgCl2, 25°C, parent ANP. How it is done:
as §1, §2

The target of assay [3] is T3, HGPRT-II (Trypanosoma brucei brucei, UniProt Q38C93). Put plainly: Inhibition studies, Ki for recombinant HGPRT-II (spectrophotometric assay). In kind it is biochemical. How it is done: as §1, §2
For assay [4], the target named is T1, HGXPRT. Description: Steady-state kinetic constants of 6-oxopurine bases for HGXPRT. Conditions: PRib-PP 1 mM, pH 8.4, 25°C. How it is done:
as §1

The target of assay [5] is T3, HGPRT-II. Description: Steady-state kinetic constants of 6-oxopurine bases for HGPRT-II. In kind it is biochemical. Conditions: PRib-PP 1 mM, pH 8.4, 25°C. How it is done: as §1
Assay [6] concerns the target T2, HGPRT-I. Description: Steady-state kinetic constants of 6-oxopurine bases for HGPRT-I. In kind it is biochemical. Conditions: PRib-PP 1 mM, pH 8.4, 25°C. How it is done:
as §1

Setting [7] is: 0.1 M Tris pH 8.4, 0.11 M MgCl2, 25°C, parent ANP.

SMILES strings stand for the structures. Values joined by “and” are separate entries in the source; they are usually repeats but may differ in a detail not shown here. Identical values can stand only once. Like-named read-outs stand apart in the source and are kept apart here.

T3 sequence (Q38C93 entry or part of it): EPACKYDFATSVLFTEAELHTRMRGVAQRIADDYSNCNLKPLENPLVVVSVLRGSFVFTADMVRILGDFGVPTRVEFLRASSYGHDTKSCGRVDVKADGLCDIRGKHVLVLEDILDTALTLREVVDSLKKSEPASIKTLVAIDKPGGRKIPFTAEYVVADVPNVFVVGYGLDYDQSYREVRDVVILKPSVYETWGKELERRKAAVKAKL
T1 sequence (Q38CA1 entry or part of it): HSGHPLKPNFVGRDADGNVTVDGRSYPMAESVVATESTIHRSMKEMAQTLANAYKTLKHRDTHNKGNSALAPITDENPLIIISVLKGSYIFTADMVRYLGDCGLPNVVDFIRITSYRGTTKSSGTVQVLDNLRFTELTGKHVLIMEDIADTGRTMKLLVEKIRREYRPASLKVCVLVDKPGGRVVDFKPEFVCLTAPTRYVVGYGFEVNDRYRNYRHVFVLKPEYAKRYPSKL
T2 sequence (Q07010 2-210 limits assumed): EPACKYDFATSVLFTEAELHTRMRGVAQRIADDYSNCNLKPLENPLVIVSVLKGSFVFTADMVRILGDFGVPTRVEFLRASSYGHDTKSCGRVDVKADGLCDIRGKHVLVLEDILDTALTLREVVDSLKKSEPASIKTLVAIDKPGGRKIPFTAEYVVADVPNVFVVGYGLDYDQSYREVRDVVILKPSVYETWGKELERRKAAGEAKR

As to `Nc1nc2c(ncn2CC(COCP(=O)(O)O)COCP(=O)(O)O)c(=O)[nH]1` [compound 6], the Ki in assay [1] (HGXPRT Ki) is below 1000 nM; in assay [2] (HGPRT-I Ki), below 1000 nM; in assay [3], 200 nM and < 1000 nM.

For `Nc1nc2c(ncn2CCN(CCN(CCP(=O)(O)O)CCP(=O)(O)O)CCP(=O)(O)O)c(=O)[nH]1` [compound 4], the Ki was 1860 ± 290 nM in assay [1] (HGXPRT Ki), 290 ± 20 nM in assay [2] (read-out: HGPRT-I Ki) and 310 ± 60 nM in assay [3] (setting [7]).

As to `N#CCCN(CCn1cnc2c(=O)[nH]c(N)nc21)CCP(=O)(O)O` [compound 1], the Ki in assay [1] (read-out: HGXPRT Ki) came to 19900 ± 1750 nM; in assay [2] (read-out: HGPRT-I Ki) it was 13500 ± 830 nM; in assay [3] (setting [7]), 14200 ± 610 nM.

Turning to `O=c1[nH]cnc2c1ncn2CCN(CCOCP(=O)(O)O)CCP(=O)(O)O` [compound 3], the Ki in assay [1] (read-out: HGXPRT Ki) is 380 nM and < 1000 nM; in assay [2] (read-out: HGPRT-I Ki), 120 nM and < 1000 nM; in assay [3] (setting [7]), 60 nM and < 1000 nM.

For `Nc1nc2nc[nH]c2c(=O)[nH]1` [Guanine], the kcat in assay [4] stood at 1.36 s⁻¹; in assay [5] it was 0.05 s⁻¹.

Consider `O=c1[nH]cnc2c1ncn2CCN(CCN(CCP(=O)(O)O)CCP(=O)(O)O)CCP(=O)(O)O` [compound 5], for which the Ki in assay [1] (read-out: HGXPRT Ki) came to 10500 ± 1320 nM; in assay [2] (read-out: HGPRT-I Ki), 2470 ± 440 nM; in assay [3] (setting [7]), 7020 ± 1620 nM.

Turning to `O=c1[nH]c(=O)c2nc[nH]c2[nH]1` [Xanthine], the Km result in assay [5] is “No activity detected”; in assay [6], “No activity detected”; in assay [6] (listed as xanthine), “no affinity”. Further, the kcat result in assay [5] is recorded as “No activity detected”; in assay [5] (listed as xanthine), “no activity”; in assay [6], “No activity detected”; in assay [6] (listed as xanthine), “no activity”.

Turning to `Nc1nc2c(ncn2CCN(CCOCP(=O)(O)O)CCP(=O)(O)O)c(=O)[nH]1` [compound 2], the Ki in assay [1] (read-out: HGXPRT Ki) amounted to 6540 nM; in assay [2] (read-out: HGPRT-I Ki) it was 110 nM; in assay [3] (setting [7]), 250 ± 20 nM.

With `Nc1nc2c(ncn2CC(COCCP(=O)(O)O)OCCP(=O)(O)O)c(=O)[nH]1` (stereo not drawn) [compound 7], the Ki in assay [1] (read-out: HGXPRT Ki) turned out to be 770 ± 60 nM; in assay [2] (read-out: HGPRT-I Ki) it was 890 ± 70 nM; in assay [3] (setting [7]), 1880 ± 170 nM.
